Target: T1, transmembrane domain-deleted rat FAAH (ΔTM rFAAH) (Rattus norvegicus, UniProt P97612)
T1 sequence (P97612 30-579 limits assumed): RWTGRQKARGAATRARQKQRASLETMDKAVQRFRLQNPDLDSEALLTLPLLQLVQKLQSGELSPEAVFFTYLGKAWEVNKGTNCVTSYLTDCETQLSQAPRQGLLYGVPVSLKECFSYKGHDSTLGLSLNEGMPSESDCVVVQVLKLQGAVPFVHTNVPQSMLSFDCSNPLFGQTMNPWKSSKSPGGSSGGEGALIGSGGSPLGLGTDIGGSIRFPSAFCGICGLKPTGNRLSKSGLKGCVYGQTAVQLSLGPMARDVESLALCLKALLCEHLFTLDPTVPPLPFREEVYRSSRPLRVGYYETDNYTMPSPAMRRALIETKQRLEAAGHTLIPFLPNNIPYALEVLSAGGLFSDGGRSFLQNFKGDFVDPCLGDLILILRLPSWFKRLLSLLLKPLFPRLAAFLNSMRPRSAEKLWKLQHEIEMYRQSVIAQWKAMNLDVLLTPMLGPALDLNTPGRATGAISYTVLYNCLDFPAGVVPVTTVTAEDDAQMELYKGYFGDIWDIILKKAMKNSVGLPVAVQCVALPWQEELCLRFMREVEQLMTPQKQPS
Conditions: phenyl ring substitution of phenylheptyl template 11e

| SMILES | increase in FAAH inhibitory potency relative to 11e |
| --- | --- |
| O=S(=O)(F)CCCCCCCc1ccccc1OCc1ccccc1 [20c, 7-(2-Benzyloxyphenyl)heptanesulfonyl fluoride] | 9-10 fold |
| O=S(=O)(F)CCCCCCCc1cccc(O)c1 [21b, 7-(3-Hydroxyphenyl)heptanesulfonyl fluoride] | 15- to 31 fold |
| O=S(=O)(F)CCCCCCCc1ccccc1O [21c, 7-(2-Hydroxyphenyl)heptanesulfonyl fluoride] | 15- to 31 fold |

— article PMC3678964 (Journal of medicinal chemistry, 2012)
